Usually solubility stands for the dissolved amount per volume that the medium holds. Higher therefore signals much dissolved substance.

Results on 20 compounds are retold here after patent US20250382317A1 (EVEXTA BIO, priority 2022, published 2025).

Data set [1] is described as follows: Solubility in HCl 0.01N (pH 1.0) and phosphate saline buffer (pH 7.4), LC-MSMS. The note with it: thermodynamic from solid.
Description: (§1) For each compound, three solutions were prepared in HCl 0.01N (pH 1.0) at 500 μM and three solutions in phosphate saline buffer (pH 7.4) at 500 μM. The solutions were prepared by dissolving each compound in the adequate solvent in opaque tubes and stirred 24 hours at room temperature. After 24 hours, for each solution, an aliquot was centrifuged 10 minutes at 3 500 rpm in order to separate the insoluble fraction from the soluble fraction. The supernatant was taken and diluted in H2O (1/20) before injection in LC-MSMS. After HPLC separation, analytes are detected and quantified by mass spectrometry. A standard curve is performed for each test substance. The solubility of each test substance was determined by calculating the concentration of each supernatant according to the standard curve.
Data set [2] is described as follows: physchem. The note with it: pH 7.4, aqueous buffer, thermodynamic from solid.
Description: as §1
The target of data set [3] is Cathepsin B (Homo sapiens, UniProt P07858). Nature of the data set: Cathepsin-B mediated drug release test. Type of data set: in vitro ADME. To be noted: 10 units/mL activated Cathepsin B, 25 mM sodium acetate pH 5.5, 37° C., 0-120 min, LC-MS of released free drug (FIG. 1). As to the method: Drug release of (Z)-3-(2-(5-bromo-1H-indol-3-yl)-2-cyanovinyl)-4-methoxybenzonitrile from Example 27 was performed using cathepsin B enzyme.
Cathepsin B (50 units/mL) was preincubated in activation buffer containing 25 mM sodium acetate (pH 5.5), 30 mM DTT and 15 mM EDTA for 15 min at 37° C. and then added as a 20% (v/v) addition to initiate each reaction.
Final in vitro cathepsin B reaction mixtures will contain 25 mM sodium acetate (pH 5.5), 10 units/mL activated Cathepsin B, 30 mM DTT and 15 mM EDTA, and 0.5 μg/mL of Example 27 in a 2.5% (v/v) incubation sample background.
Reactions will be terminated by addition of organic solvent and the supernatant analyzed by LC-MS to quantify released free drug.

[4] abbreviates: phosphate saline buffer, pH 7.4, aqueous buffer.
The mark [5] stands for this setting: HCl 0.01N, pH 1, simulated gastric fluid.

The structures appear in SMILES notation. Converted amounts (≈) assume the structure as drawn. Structures can show the parent of a compound that is named as a salt.

`COc1ccc(C#N)cc1/C=C(\C#N)c1cn(C(=O)CCCCP(=O)(O)O)c2ccc(Br)cc12` [Example 1, (Z)-5-(5-bromo-3-(1-cyano-2-(5-cyano-2-methoxyphenyl)vinyl)-1H-indol-1-yl)-5-oxopentylphosphonic acid] gave a solubility at 24 h in data set [1] (setting [4]) of 497 µM (≈ 270 µg/mL).

On to `COc1ccc(C#N)cc1/C=C(\C#N)c1cn(C(=O)CCP(=O)(O)O)c2ccc(Br)cc12` [Example 2, (Z)-3-(5-bromo-3-(1-cyano-2-(5-cyano-2-methoxyphenyl)vinyl)-1H-indol-1-yl)-3-oxopropylphosphonic acid], for which the solubility at 24 h in data set [1] (setting [4]) worked out at 12 µM (≈ 6.17 µg/mL).

In data set [1] (setting [4]), `COc1ccc(C#N)cc1/C=C(\C#N)c1cn(C(=O)CCCCCCP(=O)(O)O)c2ccc(Br)cc12` [Example 3, (Z)-7-(5-bromo-3-(1-cyano-2-(5-cyano-2-methoxyphenyl)vinyl)-1H-indol-1-yl)-7-oxoheptylphosphonic acid] returned a solubility at 24 h of 294 µM (≈ 168 µg/mL).

In data set [1] (setting [4]), `COc1ccc2c(/C(C#N)=C/c3cc(C#N)ccc3OC)cn(C(=O)CCCCP(=O)(O)O)c2c1` [Example 4, (Z)-5-(3-(1-cyano-2-(5-cyano-2-methoxyphenyl)vinyl)-6-methoxy-1H-indol-1-yl)-5-oxopentylphosphonic acid] returned a solubility at 24 h of 33 µM (≈ 16.3 µg/mL).

In the case of `COc1ccc(C#N)cc1/C=C(\C#N)c1cn(C(=O)CCCCP(=O)([O-])O)c2ccc(Br)cc12.[Na+]` [Example 6, Sodium (Z)-hydrogen5-(5-bromo-3-(1-cyano-2-(5-cyano-2-methoxyphenyl)vinyl)-1H-indol-1-yl)-5-oxopentylphosphonate], the solubility at 24 h in data set [1] (setting [5]) is 34 µM; in data set [1] (setting [4]), 206 µM.

Regarding `COc1ccc(C#N)cc1/C=C(\C#N)c1cn(C(=O)CCP(=O)([O-])O)c2ccc(Br)cc12.[Na+]` [Example 7, sodium (Z)-hydrogen3-(5-bromo-3-(1-cyano-2-(5-cyano-2-methoxyphenyl)vinyl)-1H-indol-1-yl)-3-oxopropylphosphonate], the values for the solubility at 24 h in data set [1] (setting [5]) and in data set [1] (setting [4]) were less than 5 µM and 103 µM, respectively.

With `COc1ccc(C#N)cc1/C=C(\C#N)c1cn(C(=O)CCCP(=O)([O-])O)c2ccc(Br)cc12.[Na+]` [Example 8, sodium (Z)-hydrogen4-(5-bromo-3-(1-cyano-2-(5-cyano-2-methoxyphenyl)vinyl)-1H-indol-1-yl)-4 oxobutylphosphonate], the results for the solubility at 24 h in data set [1] (setting [5]) and in data set [1] (setting [4]) were less than 5 µM and 71 µM, respectively.

`COc1ccc(C#N)cc1/C=C(\C#N)c1cn(C(=O)CCCCCCP(=O)([O-])O)c2ccc(Br)cc12.[Na+]` [Example 10, sodium (Z)-hydrogen7-(5-bromo-3-(1-cyano-2-(5-cyano-2-methoxyphenyl)vinyl)-1H-indol-1-yl)-7-oxoheptylphosphonate]: the figures for the solubility at 24 h in data set [1] (setting [5]) and in data set [1] (setting [4]) were 93 µM and 141 µM, respectively.

Regarding `COc1ccc2c(/C(C#N)=C/c3cc(C#N)ccc3OC)cn(C(=O)CCCCP(=O)([O-])O)c2c1.[Na+]` [Example 11, sodium (Z)-hydrogen5-(3-(1-cyano-2-(5-cyano-2-methoxyphenyl)vinyl)-6-methoxy-1H-indol-1-yl)-5-oxopentylphosphonate], the solubility at 24 h in data set [1] (setting [5]) was 10 µM; in data set [1] (setting [4]), 476 µM.

Turning to `COc1ccc2c(/C(C#N)=C/c3cc(C#N)ccc3OC)cn(C(=O)CCCCCCP(=O)([O-])O)c2c1.[Na+]` [Example 12, sodium (Z)-hydrogen7-(3-(1-cyano-2-(5-cyano-2-methoxyphenyl)vinyl)-6-methoxy-1H-indol-1-yl)-7-oxoheptylphosphonate], the solubility at 24 h in data set [1] (setting [5]) was 109 µM; in data set [1] (setting [4]) it was 465 µM.

Take `COc1ccc(C#N)cc1/C=C(\C#N)c1cn(C(=O)CCCP(=O)([O-])[O-])c2ccc(Br)cc12.[Na+].[Na+]` [Example 13, disodium (Z)-4-(5-bromo-3-(1-cyano-2-(5-cyano-2-methoxyphenyl)vinyl)-1H-indol-1-yl)-4-oxobutylphosphonate]: the solubility at 24 h in data set [1] (setting [5]) is 19 µM; in data set [1] (setting [4]), 45 µM.

In turn, `COc1ccc(C#N)cc1/C=C(\C#N)c1cn(C(=O)CCCCP(=O)([O-])[O-])c2ccc(Br)cc12.[Na+].[Na+]` [Example 14, disodium (Z)-5-(5-bromo-3-(1-cyano-2-(5-cyano-2-methoxyphenyl)vinyl)-1H-indol-1-yl)-5-oxopentylphosphonate] gave a solubility at 24 h in data set [1] (setting [4]) of 180 µM.

Consider `COc1ccc(C#N)cc1/C=C(\C#N)c1cn(C(=O)CCCP(=O)(O)O)c2ccc(Br)cc12` [Example 16, (S)-2,6-diaminohexanoic acid compound with (Z)-4-(5-bromo-3-(1-cyano-2-(5-cyano-2-methoxyphenyl)vinyl)-1H-indol-1-yl)-4-oxobutylphosphonic acid (2:1)], for which the values for the solubility at 24 h in data set [1] (setting [5]) and in data set [1] (setting [4]) were less than 10 µM and 35 µM (≈ 18.5 µg/mL), respectively.

In the case of `COc1ccc(C#N)cc1/C=C(\C#N)c1cn(C(=O)OCc2ccc(O[C@@H]3O[C@H](C(=O)O)[C@@H](O)[C@H](O)[C@H]3O)cc2)c2ccc(Br)cc12` [Example 19, (2S,3S,4S,5R,6S)-6-[4-[[5-bromo-3-[(Z)-1-cyano-2-(5-cyano-2-methoxy-phenyl)vinyl]indole-1-carbonyl]oxymethyl]phenoxy]-3,4,5-trihydroxy-tetrahydropyran-2-carboxylic acid], the concentration in solution in data set [1] (setting [4]) (solubility at 24 h) was 452 µM (≈ 318 µg/mL).

With `COc1ccc(C#N)cc1/C=C(\C#N)c1cn(C(=O)OCc2ccc(NC(=O)[C@H](CCCNC(N)=O)NC(=O)[C@@H](N)C(C)C)cc2)c2ccc(Br)cc12` [Example 21, hydrochloride], the solubility in data set [2] amounted to 471 µM.

`COc1ccc(C#N)cc1/C=C(\C#N)c1cn(C(=O)OCc2ccc(NC(=O)[C@H](CCCNC(N)=O)NC(=O)[C@@H](NC(=O)CCOCCOCCOCCOCCNC(=O)CCN3C(=O)C=CC3=O)C(C)C)cc2)c2ccc(Br)cc12` [Example 22, [4-[[(2S)-2-[[(2S)-2-[3-[2-[3-(2,5-dioxopyrrol-1-yl)propanoylamino]ethoxy](peg4)propanoylamino]-3-methyl-butanoyl]amino]-5-ureido-pentanoyl]amino]phenyl]methyl 5-bromo-3-[(Z)-1-cyano-2-(5-cyano-2-methoxy-phenyl)vinyl]indole-1-carboxylate] gave a solubility in data set [2] of 2 µM (≈ 2.36 µg/mL).

For the compound `COc1ccc(C#N)cc1/C=C(\C#N)c1cn(C(=O)OCc2ccc(NC(=O)[C@H](CCCNC(N)=O)NC(=O)[C@@H](NC(=O)C(CS(=O)(=O)O)NC(=O)OC(C)(C)C)C(C)C)cc2)c2ccc(Br)cc12` (some centres unmarked) [Example 24], the solubility in data set [2] turned out to be 201 µM (≈ 208 µg/mL).

Turning to `COc1ccc(C#N)cc1/C=C(\C#N)c1cn(C(=O)OCc2ccc(NC(=O)[C@H](CCCNC(N)=O)NC(=O)[C@@H](NC(=O)[C@H](CS(=O)(=O)O)NC(=O)CCOCCOCCOCCOCCNC(=O)CCN3C(=O)C=CC3=O)C(C)C)cc2)c2ccc(Br)cc12` [Example 26], the solubility in data set [2] is 175 µM (≈ 233 µg/mL).

For the compound `COc1ccc(C#N)cc1/C=C(\C#N)c1cn(C(=O)OCc2ccc(NC(=O)[C@H](CCCNC(N)=O)NC(=O)[C@@H](NC(=O)[C@H](CS(=O)(=O)O)NC(=O)CCOCCOCCOCCOCCNC(=O)CCN3C(=O)CC(SC[C@H](NC(C)=O)C(=O)O)C3=O)C(C)C)cc2)c2ccc(Br)cc12` (stereo partly drawn) [Example 27, N-acetyl-S-(1-((R)-2-(((S)-1-(((S)-1-((4-(((5-bromo-3-((Z)-1-cyano-2-(5-cyano-2-methoxyphenyl)vinyl)-1H-indole-1-carbonyl)oxy)methyl)phenyl)amino)-1-oxo-5-ureidopentan-2-yl)amino)-3-methyl-1-oxobutan-2-yl)carbamoyl)-4,20-dioxo-1-sulfo-7,10,13,16-tetraoxa-3,19-diazadocosan-22-yl)-2,5-dioxopyrrolidin-3-yl)-L-cysteine], in data set [3], the “Drug release of (Z)-3-(2-(5-bromo-1H-indol-3-yl)-2-cyanovinyl)-4-methoxybenzonitrile” value is recorded as “efficient drug release”.

Consider `COc1ccc(C#N)cc1/C=C(\C#N)c1c[nH]c2ccc(Br)cc12` [Example 38 of WO 2014/086964, (Z)-3-(2-(5-bromo-1H-indol-3-yl)-2-cyanovinyl)-4-methoxybenzonitrile, reference compound], for which the solubility at 24 h in data set [1] (setting [5]) and in data set [1] (setting [4]) was less than 5 µM each time.
